According to the supplement of paper PMC4121296:
± gives the standard deviation of the averaged measurements.

Columns and labels:
Details in all cases: exposure: 5-72 hpf
[1] = system: Danio rerio embryo (fli1:egfp); assay: heart rate at 72 hpf (beats per minute); higher = faster heart rate
Procedure: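 fli1:egfp zebrafish embryos exposed 5-72 hpf to chemical (0.05-50 µM, 0.1% DMSO) in 384-well plates; heart rate at 72 hpf quantified from stream acquisitions by semi-automated MetaXpress journal (peak counting); only embryos in concentrations passing survival/body-length criteria analyzed.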

[2] = system: Danio rerio embryo (fli1:egfp); assay: body length at 72 hpf (µm); higher = longer body (less growth inhibition)
Procedure: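 Transgenic fli1:egfp zebrafish embryos (one per well, 384-well plate) exposed statically from 5 to 72 hpf at 28 °C to chemical (0.05-50 µM, 0.1% DMSO); at 72 hpf anesthetized and imaged on ImageXpress; body length of live, hatched, correctly oriented embryos measured by automated MetaXpress journal. Dead/unhatched/misoriented embryos have no value.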

[3] = system: Danio rerio embryo (fli1:egfp); assay: pericardial area at 72 hpf (image area units (not stated)); higher = larger pericardial area (edema)
Procedure: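 fli1:egfp zebrafish embryos exposed 5-72 hpf to chemical (0.05-50 µM, 0.1% DMSO); pericardial area at 72 hpf measured by semi-automated MetaXpress journal (increase indicates edema).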

[4] = system: Danio rerio embryo (fli1:egfp); assay: arterial (dorsal aorta) circulation score at 72 hpf (normalized DA-Max (arbitrary units)); higher = more circulation
Procedure: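 fli1:egfp zebrafish embryos exposed 5-72 hpf to chemical (0.05-50 µM, 0.1% DMSO); arterial circulation at 72 hpf quantified from stream acquisitions of the dorsal aorta by FFT-based analysis (DA-Max, normalized dorsal aorta signal); only concentrations passing survival/body-length criteria analyzed.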

[5] = system: Danio rerio embryo (fli1:egfp); assay: intersegmental vessel area normalized to body length at 72 hpf (ISV area / body length (normalized units)); higher = more vessel area
Procedure: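 fli1:egfp zebrafish embryos exposed 5-72 hpf to chemical (0.05-50 µM, 0.1% DMSO); intersegmental vessel (ISV) eGFP area quantified by MetaXpress journal at 72 hpf and normalized to body length.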

C#CCOC(=O)[C@@H](C)Oc1ccc(Oc2ncc(Cl)cc2F)cc1 [Clodinafop-propargyl]
Details	arterial, [4]	body length at 72 hpf, [2]	heart rate at 72 hpf, [1]	intersegmental vessel area normalized, [5]	pericardial area at 72 hpf, [3]
0.0244 µM	11.8 ± 4.7	3010 ± 93	177 ± 25	65.9 ± 17	14100 ± 3300
0.05 µM	14.5 ± 5.3	2990 ± 110	168 ± 12	84.8 ± 17	13100 ± 3200
0.098 µM	12.3 ± 6	2960 ± 130	173 ± 34	79 ± 17	12900 ± 3200
0.195 µM	16.7 ± 13	3060 ± 80	183 ± 26	76.8 ± 24	13800 ± 3800
0.39 µM	14.4 ± 4.9	3000 ± 100	188 ± 23	87.1 ± 15	15200 ± 5600
0.78 µM	14.4 ± 5	3000 ± 110	185 ± 19	73.6 ± 22	15400 ± 5000
1.56 µM	12 ± 3.8	3030 ± 110	190 ± 19	84 ± 15	13500 ± 3400
3.125 µM	14.8 ± 5.5	3030 ± 85	191 ± 14	82.7 ± 20	12900 ± 3400
6.25 µM	12.5 ± 5.2	2930 ± 150	193 ± 19	82.8 ± 22	12900 ± 2300
12.5 µM	13.6 ± 5.5	2940 ± 95	196 ± 24	89.6 ± 17	13000 ± 2400

CC1(C)C(C=C(Cl)Cl)C1C(=O)OC(C#N)c1ccc(F)c(Oc2ccccc2)c1 (stereo unspecified) [Cyfluthrin]
Details	arterial, [4]	body length at 72 hpf, [2]	heart rate at 72 hpf, [1]	intersegmental vessel area normalized, [5]	pericardial area at 72 hpf, [3]
0.05 µM	14.9 ± 4.7	3010 ± 110	185 ± 14	80.1 ± 26	16100 ± 5200
0.098 µM	14.7 ± 4.3	3040 ± 91	187 ± 13	71.9 ± 21	14000 ± 3700
0.195 µM	16.3 ± 7.1	3030 ± 130	188 ± 15	80.3 ± 29	12900 ± 3400
0.39 µM	12.4 ± 4.2	3070 ± 120	193 ± 17	83.3 ± 28	13300 ± 4200
0.78 µM	9.66 ± 3.1	3020 ± 130	202 ± 17	71.9 ± 25	14900 ± 3200
1.56 µM	13 ± 5.4	2900 ± 150	198 ± 18	78.4 ± 25	16800 ± 3500
3.125 µM	14.7 ± 5.8	2790 ± 130	190 ± 14	92.3 ± 18	16900 ± 5300
6.25 µM	–	2620 ± 90	–	–	–

CN1CSC(=S)N(C)C1 [Dazomet]
0.05 µM
Details	arterial	body length at 72 hpf	heart rate at 72 hpf	intersegmental vessel area normalized	pericardial area at 72 hpf
[1]	–	–	168 ± 32	–	–
[2]	–	2860 ± 98	–	–	–
[3]	–	–	–	–	15600 ± 5300
[4]	14.4 ± 6.5	–	–	–	–
[5]	–	–	–	72.7 ± 20	–
